# Test results reported in the supplement of paper PMC8671470.
# Test system: KU-812
# Assay: cell viability (% survival relative to DMSO control, bortezomib = 0%); higher = less cytotoxic
# Conditions: 10 nM; 72 h
# Method in brief: (§1)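 Reported values are percent survival from duplicate wells, averaged. Fifteen myeloid leukaemia cell lines were treated in 384-well plates with compounds at 1, 10, 100, 1000 or 10000 nM for 72 h at 37 °C in 5% CO2. Signals from CellTiter-Glo luminescence were scaled with vehicle as 100% and a 10 µM positive control as 0%.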
row,SMILES,cell viability [%]
1,CN1CC(=O)N2[C@H](c3ccc4c(c3)OCO4)c3[nH]c4ccccc4c3C[C@@H]2C1=O [Tadalafil],87.8

# Same assay, conditions: 100 nM; 72 h
row,SMILES,cell viability [%]
1,CC(C)(F)C[C@H](N[C@@H](c1ccc(-c2ccc(S(C)(=O)=O)cc2)cc1)C(F)(F)F)C(=O)NC1(C#N)CC1 [Odanacatib],99.7
2,Nc1nc(O)c2c(CCc3ccc(C(=O)N[C@@H](CCC(=O)O)C(=O)O)cc3)c[nH]c2n1 [Pemetrexed],71.1
3,C=C1NC(=O)c2cc(CN(C)c3ccc(C(=O)N[C@@H](CCC(=O)O)C(=O)O)s3)ccc2N1 [Raltitrexed],37.7
4,CNC(=C[N+](=O)[O-])NCCSCc1ccc(CN(C)C)o1 [Ranitidine],97.4
5,C#CCN[C@@H]1CCc2ccccc21 [Rasagiline],97.1
6,NC(CCC(=O)NC(CSCc1ccc(Br)cc1)C(=O)NCC(=O)OC1CCCC1)C(=O)OC1CCCC1 (centres undefined) [S-para-Bromobenzylglutathione cyclopentyl diester],95.9
7,COc1cc(C2Oc3cc(C4Oc5cc(O)cc(O)c5C(=O)C4O)ccc3OC2CO)ccc1O (centres undefined) [Silibinin],108
8,Fc1ccc(CNc2ncnc3ccc(F)cc23)cc1 [Spautin 1],94.5
9,Cn1c2cc(S(C)=O)sc2c2cnn(Cc3cccc(N)c3)c(=O)c21 (centres undefined) [TEPP-46],98.5
10,CCCCCCCCCCCCCCOc1ccc(C(=O)O)o1 [TOFA],95.6
11,CN1CC(=O)N2[C@H](c3ccc4c(c3)OCO4)c3[nH]c4ccccc4c3C[C@@H]2C1=O [Tadalafil],99.2

# Same assay, conditions: 1000 nM; 72 h
row,SMILES,cell viability [%]
1,CC(C)(F)C[C@H](N[C@@H](c1ccc(-c2ccc(S(C)(=O)=O)cc2)cc1)C(F)(F)F)C(=O)NC1(C#N)CC1 [Odanacatib],91.8
2,Nc1nc(O)c2c(CCc3ccc(C(=O)N[C@@H](CCC(=O)O)C(=O)O)cc3)c[nH]c2n1 [Pemetrexed],38.6
3,C=C1NC(=O)c2cc(CN(C)c3ccc(C(=O)N[C@@H](CCC(=O)O)C(=O)O)s3)ccc2N1 [Raltitrexed],34.6
4,CNC(=C[N+](=O)[O-])NCCSCc1ccc(CN(C)C)o1 [Ranitidine],96.8
5,C#CCN[C@@H]1CCc2ccccc21 [Rasagiline],90.3
6,NC(CCC(=O)NC(CSCc1ccc(Br)cc1)C(=O)NCC(=O)OC1CCCC1)C(=O)OC1CCCC1 (centres undefined) [S-para-Bromobenzylglutathione cyclopentyl diester],101
7,COc1cc(C2Oc3cc(C4Oc5cc(O)cc(O)c5C(=O)C4O)ccc3OC2CO)ccc1O (centres undefined) [Silibinin],94.1
8,Fc1ccc(CNc2ncnc3ccc(F)cc23)cc1 [Spautin 1],62.3
9,Cn1c2cc(S(C)=O)sc2c2cnn(Cc3cccc(N)c3)c(=O)c21 (centres undefined) [TEPP-46],107
10,CCCCCCCCCCCCCCOc1ccc(C(=O)O)o1 [TOFA],81.5
11,CN1CC(=O)N2[C@H](c3ccc4c(c3)OCO4)c3[nH]c4ccccc4c3C[C@@H]2C1=O [Tadalafil],106

# Same assay, conditions: 10000 nM; 72 h
row,SMILES,cell viability [%]
1,CC(C)(F)C[C@H](N[C@@H](c1ccc(-c2ccc(S(C)(=O)=O)cc2)cc1)C(F)(F)F)C(=O)NC1(C#N)CC1 [Odanacatib],99.2
2,Nc1nc(O)c2c(CCc3ccc(C(=O)N[C@@H](CCC(=O)O)C(=O)O)cc3)c[nH]c2n1 [Pemetrexed],39.3
3,C=C1NC(=O)c2cc(CN(C)c3ccc(C(=O)N[C@@H](CCC(=O)O)C(=O)O)s3)ccc2N1 [Raltitrexed],39.1
4,CNC(=C[N+](=O)[O-])NCCSCc1ccc(CN(C)C)o1 [Ranitidine],107
5,C#CCN[C@@H]1CCc2ccccc21 [Rasagiline],111
6,NC(CCC(=O)NC(CSCc1ccc(Br)cc1)C(=O)NCC(=O)OC1CCCC1)C(=O)OC1CCCC1 (centres undefined) [S-para-Bromobenzylglutathione cyclopentyl diester],93.9
7,COc1cc(C2Oc3cc(C4Oc5cc(O)cc(O)c5C(=O)C4O)ccc3OC2CO)ccc1O (centres undefined) [Silibinin],90.7
8,Fc1ccc(CNc2ncnc3ccc(F)cc23)cc1 [Spautin 1],12.6
9,Cn1c2cc(S(C)=O)sc2c2cnn(Cc3cccc(N)c3)c(=O)c21 (centres undefined) [TEPP-46],74.4
10,CCCCCCCCCCCCCCOc1ccc(C(=O)O)o1 [TOFA],82.5
11,CN1CC(=O)N2[C@H](c3ccc4c(c3)OCO4)c3[nH]c4ccccc4c3C[C@@H]2C1=O [Tadalafil],96

# Test system: MV4-11
# Assay: as above
# Conditions: 1 nM; 72 h
# Method in brief: as §1
row,SMILES,cell viability [%]
1,CC(C)(F)C[C@H](N[C@@H](c1ccc(-c2ccc(S(C)(=O)=O)cc2)cc1)C(F)(F)F)C(=O)NC1(C#N)CC1 [Odanacatib],109
2,Nc1nc(O)c2c(CCc3ccc(C(=O)N[C@@H](CCC(=O)O)C(=O)O)cc3)c[nH]c2n1 [Pemetrexed],98.7
3,C=C1NC(=O)c2cc(CN(C)c3ccc(C(=O)N[C@@H](CCC(=O)O)C(=O)O)s3)ccc2N1 [Raltitrexed],108
4,CNC(=C[N+](=O)[O-])NCCSCc1ccc(CN(C)C)o1 [Ranitidine],98.5
5,C#CCN[C@@H]1CCc2ccccc21 [Rasagiline],97.8
6,NC(CCC(=O)NC(CSCc1ccc(Br)cc1)C(=O)NCC(=O)OC1CCCC1)C(=O)OC1CCCC1 (centres undefined) [S-para-Bromobenzylglutathione cyclopentyl diester],109
7,COc1cc(C2Oc3cc(C4Oc5cc(O)cc(O)c5C(=O)C4O)ccc3OC2CO)ccc1O (centres undefined) [Silibinin],100
8,Fc1ccc(CNc2ncnc3ccc(F)cc23)cc1 [Spautin 1],98.8
9,Cn1c2cc(S(C)=O)sc2c2cnn(Cc3cccc(N)c3)c(=O)c21 (centres undefined) [TEPP-46],105
10,CCCCCCCCCCCCCCOc1ccc(C(=O)O)o1 [TOFA],87.6
11,CN1CC(=O)N2[C@H](c3ccc4c(c3)OCO4)c3[nH]c4ccccc4c3C[C@@H]2C1=O [Tadalafil],100

# Same assay, conditions: 10 nM; 72 h
row,SMILES,cell viability [%]
1,CC(C)(F)C[C@H](N[C@@H](c1ccc(-c2ccc(S(C)(=O)=O)cc2)cc1)C(F)(F)F)C(=O)NC1(C#N)CC1 [Odanacatib],105
2,Nc1nc(O)c2c(CCc3ccc(C(=O)N[C@@H](CCC(=O)O)C(=O)O)cc3)c[nH]c2n1 [Pemetrexed],94.2
3,C=C1NC(=O)c2cc(CN(C)c3ccc(C(=O)N[C@@H](CCC(=O)O)C(=O)O)s3)ccc2N1 [Raltitrexed],110
4,CNC(=C[N+](=O)[O-])NCCSCc1ccc(CN(C)C)o1 [Ranitidine],109
5,C#CCN[C@@H]1CCc2ccccc21 [Rasagiline],104
6,NC(CCC(=O)NC(CSCc1ccc(Br)cc1)C(=O)NCC(=O)OC1CCCC1)C(=O)OC1CCCC1 (centres undefined) [S-para-Bromobenzylglutathione cyclopentyl diester],89.3
7,COc1cc(C2Oc3cc(C4Oc5cc(O)cc(O)c5C(=O)C4O)ccc3OC2CO)ccc1O (centres undefined) [Silibinin],95.7
8,Fc1ccc(CNc2ncnc3ccc(F)cc23)cc1 [Spautin 1],92.4
9,Cn1c2cc(S(C)=O)sc2c2cnn(Cc3cccc(N)c3)c(=O)c21 (centres undefined) [TEPP-46],100
10,CCCCCCCCCCCCCCOc1ccc(C(=O)O)o1 [TOFA],87.9
11,CN1CC(=O)N2[C@H](c3ccc4c(c3)OCO4)c3[nH]c4ccccc4c3C[C@@H]2C1=O [Tadalafil],86.7

# Same assay, conditions: 100 nM; 72 h
row,SMILES,cell viability [%]
1,CC(C)(F)C[C@H](N[C@@H](c1ccc(-c2ccc(S(C)(=O)=O)cc2)cc1)C(F)(F)F)C(=O)NC1(C#N)CC1 [Odanacatib],111
2,Nc1nc(O)c2c(CCc3ccc(C(=O)N[C@@H](CCC(=O)O)C(=O)O)cc3)c[nH]c2n1 [Pemetrexed],106
3,C=C1NC(=O)c2cc(CN(C)c3ccc(C(=O)N[C@@H](CCC(=O)O)C(=O)O)s3)ccc2N1 [Raltitrexed],48.1
4,CNC(=C[N+](=O)[O-])NCCSCc1ccc(CN(C)C)o1 [Ranitidine],108
5,C#CCN[C@@H]1CCc2ccccc21 [Rasagiline],108
6,NC(CCC(=O)NC(CSCc1ccc(Br)cc1)C(=O)NCC(=O)OC1CCCC1)C(=O)OC1CCCC1 (centres undefined) [S-para-Bromobenzylglutathione cyclopentyl diester],106
7,COc1cc(C2Oc3cc(C4Oc5cc(O)cc(O)c5C(=O)C4O)ccc3OC2CO)ccc1O (centres undefined) [Silibinin],97.2
8,Fc1ccc(CNc2ncnc3ccc(F)cc23)cc1 [Spautin 1],102
